Square brackets hold non-standard residues; d marks the D form. Peptide text beside a SMILES is read from it.
What was measured:
[1] = Solubility of D-peptides; details: PBS pH 7.4, 1 h at 37 °C, 20,800×g centrifugation, UV–vis absorption; lyophilized chloride salt
[2] = tested on: α-synA53T–YFP cells (HEK293T)
[3] = tested on: α-syn monomer; test: 100 kDa MWCO fractionation of de novo aggregation samples followed by ELISA; assay type: biochemical, Human; details: 7 days, ELISA n = 3
Method: Fig. 7 De novo aggregation analysis of α-syn in the presence and absence of SVD-1a. A De novo ThT assay of 10 µM α-syn with and without 20 µM SVD-1a. ThT fluorescence progression was measured in a 96-well non-binding half-area plate (Corning, USA) with a FLUOStar plate reader (BMG labtech, GE) at λex = 448 nm and λem = 482 nm with 300 rpm continuous orbital shaking between reads. For induction of aggregation, one borosilicate bead per well was added (d = 3 mm, Hilgenberg, GE). Data are shown as mean values with ±SD (n = 5). B CD secondary structure analysis of de novo aggregation samples. Samples were incubated as described in (A) without added ThT (n = 3) and subsequently pooled for CD analysis. Far-UV ellipticity of the samples was measured in a quartz cuvette (l = 10 mm) in a J-1100 CD-spectrometer (Jasco, GE). In addition to (A), a sample with 20 µM SVD-1a alone was incubated under identical conditions and later used as a reference for the sample with α-syn and SVD-1a. For this sample (α-syn + SVD-1a (after incubation)), the SVD-1a reference subtracted CD spectrum is shown. […] D α-Syn in the flow through (MWCO < 100 kDa) was quantified using an α-syn specific ELISA (BioLegend, Human α-Synuclein (Colorimetric), 448607, n = 3). E Retentate and flow-through samples were analyzed using SDS–PAGE with silver staining. […]

[4] = tested on: small α-syn PFF; test: Western blot of small α-syn PFF; assay type: biochemical; details: 200 nM PFF with 250, 500, 750, 1000 nM SVD-1a, 72 h, 37 °C; antibody Syn211
Method: Samples of 200 nM small α-syn PFF or α-syn monomer were incubated with 0, 250, 500, 750 and 1000 nM SVD-1a for 72 h at 37 °C in PBS pH 7.4 with 0.05% sodium azide. Samples were then resolved via SDS–PAGE on 12% TGX gels (Bio-Rad, Hercules, USA) using the Mini-PROTEAN Tetra Cell (Bio-Rad, Hercules, USA). Proteins were transferred to a PVDF membrane (0.2 µm pore size) (Trans-Blot Turbo Mini PVDF Transfer Pack, Bio-Rad, Hercules, USA) at 25 V, 1.3 A for 7 min. Blocking of the membrane was carried out with 2% nonfat dried milk powder in TBS + 0.05% Tween 20 for 1 h at room temperature. Anti-α-synuclein antibody Syn211 (RRID:AB_628318, Santa Cruz Biotechnology, Dallas, TX, USA) was used as primary antibody at a concentration of 1 µg/ml in TBS-T for 1 h at RT. As a secondary antibody, an HRP-coupled goat anti-mouse IgG (RRID:AB_228307, Thermo Fisher Scientific, Waltham, MA, USA) was used at 0.2 µg/ml in TBS-T for 1 h at RT. […]
Supplementary Figure 11: Western blot of small α-syn PFF samples incubated with SVD-1a. […] A PFF and monomer sample that were incubated without SVD-1a served as controls. α-Syn was detected with Syn211. A prominent monomer band was present between the 15 kDa- and 20 kDa marker bands, detected with shorter exposure time (left). […] In the upper part of the blot, above the marker range, PFFs were detected using longer exposure time due to weaker signal (right).

SMILES | concentration completely retained in supernatant [1] | cell viability, PFF-seeded α-synA53T–YFP cells [2] | monomeric α-syn in flow-through ([3]; 10 µM α-syn with 5, 10, 20 µM SVD-1a, controls ~3.7 µM before, ~0.3 µM after incubation without compound) | monomeric α-syn in flow-through vs non-pre-incubated control ([3]; 20 µM SVD-1a, 10 µM α-syn) | intensity of higher MW α-syn bands [4]
CC[C@@H](C)[C@@H](NC(=O)[C@@H](Cc1c[nH]cn1)NC(=O)[C@@H](CCC(=O)O)NC(=O)[C@@H](CCC(N)=O)NC(=O)[C@@H](Cc1c[nH]c2ccccc12)NC(=O)[C@@H](Cc1ccc(O)cc1)NC(=O)[C@H](NC(=O)[C@@H](CCC(=O)O)NC(=O)[C@@H](Cc1c[nH]cn1)NC(=O)[C@H](NC(=O)[C@H]1CCCN1C(=O)[C@@H](CCSC)NC(=O)[C@H](N)CCCCN)[C@H](C)O)[C@H](C)O)C(=O)N[C@H](Cc1c[nH]c2ccccc12)C(=O)N[C@H](Cc1c[nH]cn1)C(=O)N[C@H](C)C(N)=O [SVD-1] (H-[dK][dM][dP][dT][dH][dE][dT][dY][dW][dQ][dE][dH][dI][dW][dH][dA]-NH2) | at least 1 mM | – | – | – | –
CC[C@@H](C)[C@@H](NC(=O)[C@@H](Cc1c[nH]cn1)NC(=O)[C@@H](CCC(=O)O)NC(=O)[C@@H](CCC(N)=O)NC(=O)[C@@H](Cc1c[nH]c2ccccc12)NC(=O)[C@@H](Cc1ccc(O)cc1)NC(=O)[C@H](NC(=O)[C@@H](CCC(=O)O)NC(=O)[C@@H](Cc1c[nH]cn1)NC(=O)[C@H](NC(=O)[C@H]1CCCN1C(=O)[C@@H](CC(C)C)NC(=O)[C@H](N)CCCNC(=N)N)[C@H](C)O)[C@H](C)O)C(=O)N[C@H](Cc1c[nH]c2ccccc12)C(=O)N[C@H](Cc1c[nH]cn1)C(=O)N[C@H](C)C(=O)N[C@H](CCCNC(=N)N)C(=O)N[C@H](CCCNC(=N)N)C(=O)N[C@H](CCCNC(=N)N)C(=O)N[C@H](CCCNC(=N)N)C(=O)N[C@H](CCCNC(=N)N)C(N)=O [SVD-1a] (H-[dR][dL][dP][dT][dH][dE][dT][dY][dW][dQ][dE][dH][dI][dW][dH][dA][dR][dR][dR][dR][dR]-NH2) | – | did not induce significantly different luminescence in comparison to unseeded cells or seeded cells without peptide treatment | concentration-dependent stabilization of monomeric α-syn | restoring monomer levels in the eluate to those of the non-pre-incubated control | progressively reduced in presence of higher SVD-1a concentrations
